Results reported in PubChem BioAssay (NCI).
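Exposure lasted 48 hours, with cells grown in 96-well plates and compounds tested at five concentrations. GI50 is the concentration that inhibits growth by half. Definition used: TGI = concentration required for complete inhibition of growth.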

Columns and labels:
Experiment in all cases: NCI tumour cell line growth inhibition, 48 h
[1] = test system: SW-620 colon
[2] = test system: SF-295 CNS
[3] = test system: OVCAR-4 ovarian
[4] = test system: A498 renal
[5] = test system: HOP-92 NSCLC
[6] = test system: TK-10 renal
[7] = test system: SK-MEL-28 melanoma
[8] = test system: MALME-3M melanoma
[9] = test system: DU-145 prostate
[10] = test system: HL-60(TB) leukemia
[11] = test system: UACC-62 melanoma
[12] = test system: SK-MEL-5 melanoma
[13] = test system: SK-MEL-2 melanoma
[14] = test system: HCT-116 colon
[15] = test system: KM12 colon
[16] = test system: MCF7 breast
[17] = test system: 786-0 renal
[18] = test system: MDA-MB-231 breast
[19] = test system: SN12C renal
[20] = test system: ACHN renal
[21] = test system: CAKI-1 renal
[22] = test system: HOP-62 NSCLC
[23] = test system: A549 NSCLC
[24] = test system: HS 578T breast
[25] = test system: LOX IMVI melanoma
[26] = test system: RPMI-8226 leukemia
[27] = test system: OVCAR-8 ovarian
[28] = test system: SK-OV-3 ovarian
[29] = test system: EKVX NSCLC
[30] = test system: NCI-H226 lung
[31] = test system: UACC-257 melanoma
[32] = test system: MDA-MB-435
[33] = test system: SNB-75 CNS
[34] = test system: MOLT-4 leukemia
[35] = test system: UO-31 renal
[36] = test system: CCRF-CEM leukemia
[37] = test system: HCC-2998 colon
[38] = test system: IGROV1 ovarian
[39] = test system: NCI-H522 lung
[40] = test system: NCI-H460 lung
[41] = test system: U251 CNS
[42] = test system: PC-3 prostate
[43] = test system: NCI-H23 lung
[44] = test system: COLO 205 colon
[45] = test system: HT29 colon
[46] = test system: M14 melanoma
[47] = test system: OVCAR-3 ovarian
[48] = test system: SF-539 CNS
[49] = test system: SF-268 CNS
[50] = test system: K-562 leukemia
[51] = test system: BT-549 breast
[52] = test system: OVCAR-5 ovarian
[53] = test system: SNB-19 CNS
[54] = test system: RXF 393 renal
[55] = test system: NCI/ADR-RES ovarian
[56] = test system: T-47D breast
[57] = test system: HCT-15 colon
[58] = test system: SR leukemia

## Cn1ncc2c(/N=C/c3cccs3)[nH]c(=S)nc21
[1]
  GI50: 31.5 µM
  TGI: > 100 µM
[2]
  GI50: 41.1 µM
  TGI: > 83.3 µM
[3]
  GI50: > 59 µM
  TGI: > 100 µM
[4]
  GI50: 0.689 µM
  TGI: 27.5 µM
[5]
  GI50: 61.2 µM
  TGI: > 100 µM
[6]
  GI50: 40.6 µM
  TGI: > 85.2 µM
[7]
  GI50: 56.5 µM
  TGI: > 100 µM
[8]
  GI50: 34 µM
  TGI: > 80.7 µM
[9]
  GI50: 25.6 µM
  TGI: > 70.5 µM
[10]
  GI50: 43.6 µM
  TGI: > 100 µM
[11]
  GI50: 19.6 µM
  TGI: 52.4 µM
[12]
  GI50: 17.9 µM
  TGI: 39.9 µM
[13]
  GI50: > 64.5 µM
  TGI: > 100 µM
[14]
  GI50: 33.9 µM
  TGI: 98 µM
[15]
  GI50: 28.8 µM
  TGI: > 59.4 µM
[16]
  GI50: 27.4 µM
  TGI: > 80.3 µM
[17]
  GI50: 60.1 µM
  TGI: > 100 µM
[18]
  GI50: 20.3 µM
  TGI: > 67.5 µM
[19]
  GI50: > 36 µM
  TGI: > 69.2 µM
[20]
  GI50: 37.6 µM
  TGI: > 80 µM
[21]
  GI50: 33.4 µM
  TGI: > 100 µM
[22]
  GI50: 52.9 µM
  TGI: > 93.8 µM
[23]
  GI50: 47.4 µM
  TGI: > 100 µM
[24]
  GI50: 24.9 µM
  TGI: 77 µM
[25]
  GI50: 36.4 µM
  TGI: > 100 µM
[26]
  GI50: 31.6 µM
  TGI: > 100 µM
[27]
  GI50: 57.5 µM
  TGI: > 100 µM
[28]
  GI50: 80 µM
  TGI: > 100 µM
[29]
  GI50: 41.1 µM
  TGI: 99.8 µM
[30]
  GI50: 10.5 µM
  TGI: 40.9 µM
[31]
  GI50: > 65.4 µM
  TGI: > 100 µM
[32]
  GI50: 29.9 µM
  TGI: > 72.2 µM
[33]
  GI50: > 63.7 µM
  TGI: > 100 µM
[34]
  GI50: 44.1 µM
  TGI: > 100 µM
[35]
  GI50: 58.6 µM
  TGI: > 100 µM
[36]
  GI50: 55.7 µM
  TGI: > 100 µM
[37]
  GI50: 32.9 µM
  TGI: > 100 µM
[38]
  GI50: > 61.2 µM
  TGI: > 100 µM
[39]
  GI50: > 68.2 µM
  TGI: > 100 µM
[40]
  GI50: 31 µM
  TGI: > 100 µM
[41]
  GI50: 43.1 µM
  TGI: > 100 µM
[42]
  GI50: 40.7 µM
  TGI: > 100 µM
[43]
  GI50: 33.7 µM
  TGI: > 76.1 µM
[44]
  GI50: 22.8 µM
  TGI: 65.7 µM
[45]
  GI50: 52.3 µM
  TGI: > 100 µM
[46]
  GI50: 45.7 µM
  TGI: > 100 µM
[47]
  GI50: 29.2 µM
  TGI: > 76.7 µM
[48]
  GI50: 32.2 µM
  TGI: > 100 µM
[49]
  GI50: 26.2 µM
  TGI: > 94.6 µM
[50]
  GI50: 21.2 µM
  TGI: > 100 µM
[51]
  GI50: 33.2 µM
  TGI: > 91.3 µM
[52]
  GI50: 54 µM
  TGI: > 100 µM
[53]
  GI50: 49.9 µM
  TGI: > 100 µM
[54]
  GI50: 26.2 µM
  TGI: > 73.3 µM
[55]
  GI50: > 100 µM
  TGI: > 100 µM
[56]
  GI50: 35.9 µM
  TGI: > 100 µM
[57]
  GI50: 42.4 µM
  TGI: > 100 µM

## CCOC(=O)/C(=C/c1ccc([N+](=O)[O-])cc1)C(=O)c1ccccc1
[1]
  GI50: 2.14 µM
  TGI: 4.84 µM
[2]
  GI50: 2.78 µM
  TGI: 8.5 µM
[3]
  GI50: 3.44 µM
  TGI: 12.9 µM
[4]
  GI50: 2.33 µM
  TGI: 5.37 µM
[5]
  GI50: 2.01 µM
  TGI: 4.45 µM
[6]
  GI50: 2.27 µM
  TGI: 6.54 µM
[7]
  GI50: 2.1 µM
  TGI: 4.73 µM
[9]
  GI50: 2.08 µM
  TGI: 4.27 µM
[10]
  GI50: 2.34 µM
  TGI: 5.87 µM
[11]
  GI50: 1.93 µM
  TGI: 4.28 µM
[12]
  GI50: 1.94 µM
  TGI: 3.62 µM
[13]
  GI50: 2.24 µM
  TGI: 5.15 µM
[14]
  GI50: 2.33 µM
  TGI: 5.3 µM
[15]
  GI50: 2.16 µM
  TGI: 4.65 µM
[16]
  GI50: 2.32 µM
  TGI: 8.94 µM
[17]
  GI50: 1.82 µM
  TGI: 3.45 µM
[18]
  GI50: 2.34 µM
  TGI: 5.24 µM
[19]
  GI50: 1.76 µM
  TGI: 3.76 µM
[20]
  GI50: 2.03 µM
  TGI: 4.35 µM
[21]
  GI50: 2.56 µM
  TGI: 7.13 µM
[58]
  GI50: 2.85 µM
  TGI: > 100 µM
[22]
  GI50: 2.28 µM
  TGI: 6.07 µM
[23]
  GI50: 6.28 µM
  TGI: 20.6 µM
[24]
  GI50: 3.44 µM
  TGI: 12.8 µM
[25]
  GI50: 1.77 µM
  TGI: 3.38 µM
[26]
  GI50: 2.34 µM
  TGI: 6.07 µM
[27]
  GI50: 3.73 µM
  TGI: 12 µM
[28]
  GI50: 11.5 µM
  TGI: 23.6 µM
[29]
  GI50: 4.88 µM
  TGI: 17.4 µM
[30]
  GI50: 2.57 µM
  TGI: 6.45 µM
[31]
  GI50: 3.12 µM
  TGI: 7.61 µM
[32]
  GI50: 2.23 µM
  TGI: 5.37 µM
[33]
  GI50: 1.72 µM
  TGI: 4.22 µM
[34]
  GI50: 3.01 µM
  TGI: 9.38 µM
[35]
  GI50: 1.66 µM
  TGI: 3.18 µM
[36]
  GI50: 3.03 µM
  TGI: 9.11 µM
[37]
  GI50: 1.87 µM
  TGI: 3.43 µM
[38]
  GI50: 2.53 µM
  TGI: 7.4 µM
[39]
  GI50: 1.7 µM
  TGI: 3.51 µM
[40]
  GI50: 2.69 µM
  TGI: 7.15 µM
[41]
  GI50: 2.13 µM
  TGI: 4.48 µM
[42]
  GI50: 2.46 µM
  TGI: 6.11 µM
[43]
  GI50: 2.25 µM
  TGI: 5.56 µM
[44]
  GI50: 1.95 µM
  TGI: 3.89 µM
[45]
  GI50: 2.05 µM
  TGI: 3.83 µM
[46]
  GI50: 2.11 µM
  TGI: 5.01 µM
[47]
  GI50: 2.56 µM
  TGI: 5.96 µM
[48]
  GI50: 1.82 µM
  TGI: 3.58 µM
[49]
  GI50: 2.83 µM
  TGI: 10.7 µM
[50]
  GI50: 3.5 µM
  TGI: 28.7 µM
[51]
  GI50: 2.04 µM
  TGI: 4.37 µM
[52]
  GI50: 2.55 µM
  TGI: 6.93 µM
[53]
  GI50: 2.4 µM
  TGI: 5.81 µM
[54]
  GI50: 2 µM
  TGI: 3.67 µM
[55]
  GI50: 3.43 µM
  TGI: 19.8 µM
[56]
  GI50: 2.64 µM
  TGI: 8.35 µM
[57]
  GI50: 1.99 µM
  TGI: 4.51 µM
